Assay results reported in US10294202B2, “Pyrrolidinones as herbicides” (FMC Corporation, priority 2013, dated 2019).

Legend:
corn = assay: Test A pre-/postemergence herbicide test; type: in vivo, Zea mays
Outline: (§1)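 Visual injury ratings, 0 = no effect, 100 = complete control, taken ~10 days after treatment against untreated greenhouse controls. Preemergence: directed soil spray onto seeded loam/sand pots. Postemergence: spray onto plants at one- to two-leaf stage, 2–10 cm tall.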

sedge, umbrella = assay: Test B flooded paddy test; type: in vivo, Cyperus difformis; conditions: Flood, scale of 0 to 100 where 0 is no effect and 100 is complete control
Outline: (§2)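 Plants grown to 2-leaf stage; pots flooded 3 cm above soil and compound applied directly into paddy water, depth held throughout. Visual rating against untreated controls after 13 to 15 days in greenhouse, 0 (no effect) to 100 (complete control).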

rice = assay: Test B flooded paddy test; type: in vivo, Oryza sativa; conditions: Flood, scale of 0 to 100 where 0 is no effect and 100 is complete control
Experimental: (§3) Plant species in the flooded paddy test selected from rice (Oryza sativa), sedge, umbrella (small-flower umbrella sedge, Cyperus difformis), ducksalad (Heteranthera limosa), and barnyardgrass (Echinochloa crus-galli) were grown to the 2-leaf stage for testing. At time of treatment, test pots were flooded to 3 cm above the soil surface, treated by application of test compounds directly to the paddy water, and then maintained at that water depth for the duration of the test. Treated plants and controls were maintained in a greenhouse for 13 to 15 days, after which time all species were compared to controls and visually evaluated. Plant response ratings, summarized in Table B, are based on a scale of 0 to 100 where 0 is no effect and 100 is complete control. A dash (-) response means no test result.

velvetleaf = assay: Test A pre-/postemergence herbicide test; type: in vivo, Abutilon theophrasti
Outline: as §1

ducksalad = assay: Test B flooded paddy test; type: in vivo, Heteranthera limosa; conditions: Flood, scale of 0 to 100 where 0 is no effect and 100 is complete control
Outline: as §2

giant foxtail = assay: Test A pre-/postemergence herbicide test; type: in vivo, Setaria faberii
Outline: as §1

barnyardgrass [1] = assay: Test A pre-/postemergence herbicide test; type: in vivo, Echinochloa crus-galli
Outline: as §1

crabgrass, large = assay: Test A pre-/postemergence herbicide test; type: in vivo, Digitaria sanguinalis
Outline: as §1

morningglory = assay: Test A pre-/postemergence herbicide test; type: in vivo, Ipomoea spp.
Outline: as §1

wheat = assay: Test A pre-/postemergence herbicide test; type: in vivo, Triticum aestivum
Outline: as §1

pigweed = assay: Test A pre-/postemergence herbicide test; type: in vivo, Amaranthus retroflexus
Outline: as §1

barnyardgrass [2] = assay: Test B flooded paddy test; type: in vivo, Echinochloa crus-galli; conditions: Flood, scale of 0 to 100 where 0 is no effect and 100 is complete control
Experimental: as §3

[3] = 125 g ai/ha, visual rating, 0 to 100 scale, 0 no effect, 100 complete control, approximately 10 days, preemergence
[4] = Postemergence, 125 g ai/ha, 0 to 100 scale, 0 is no effect, 100 is complete control
[5] = preemergence, 500 g ai/ha, 0 to 100 scale, 0 is no effect and 100 is complete control
[6] = Postemergence, 125 g ai/ha, 0 to 100 scale, 0 no effect, 100 complete control
[7] = Postemergence, 500 g ai/ha, 0 to 100 scale (0 no effect, 100 complete control)
[8] = preemergence, 500 g ai/ha, 0 to 100 scale
[9] = preemergence, 500 g ai/ha, 0 to 100 scale (0 no effect, 100 complete control)
[10] = Preemergence, 125 g ai/ha, visual rating on 0 to 100 scale (0 no effect, 100 complete control)

COc1ccc(C2CNC(=O)C2C(=O)Nc2ccccc2C(F)(F)F)cc1F (racemic) [Compound 199]
Plant response rating, Corn (corn; [3]): 0 | Plant response rating, Corn (corn; [4]): 0 | Corn plant response rating (0 to 100 scale, 0 is no effect, 100 is complete control) (corn; Postemergence, 500 g ai/ha): 0 | Plant response rating, Corn (corn; [5]): 0 | Plant response rating, Sedge, Umbrella (sedge, umbrella; 250 g ai/ha): 0 | Plant response rating, Sedge, Umbrella (sedge, umbrella; 1000 g ai/ha): 0 | Plant response rating, Rice (rice; 250 g ai/ha): 0 | Plant response rating, Rice (rice; 1000 g ai/ha): 0 | Plant response rating, Velvetleaf (velvetleaf; [3]): 0 | Plant response rating, Velvetleaf (velvetleaf; [4]): 0 | Velvetleaf plant response rating (0 to 100 scale, 0 is no effect, 100 is complete control) (velvetleaf; Postemergence, 500 g ai/ha): 40 | Plant response rating, Velvetleaf (velvetleaf; [5]): 0 | Plant response rating, Ducksalad (ducksalad; 250 g ai/ha): 90 | Plant response rating, Ducksalad (ducksalad; 1000 g ai/ha): 80 | Plant response rating, Foxtail, Giant (giant foxtail; [3]): 50 | Plant response rating, Foxtail, Giant (giant foxtail; [4]): 0 | Foxtail, Giant plant response rating (0 to 100 scale, 0 is no effect, 100 is complete control) (giant foxtail; Postemergence, 500 g ai/ha): 50 | Plant response rating, Foxtail, Giant (giant foxtail; [5]): 90 | Plant response rating, Barnyardgrass (barnyardgrass [1]; [3]): 0 | Plant response rating, Barnyardgrass (barnyardgrass [1]; [4]): 50 | Barnyardgrass plant response rating (0 to 100 scale, 0 is no effect, 100 is complete control) (barnyardgrass [1]; Postemergence, 500 g ai/ha): 70 | Plant response rating, Barnyardgrass (barnyardgrass [1]; [5]): 60 | Plant response rating, Crabgrass, Large (crabgrass, large; [3]): 90 | Plant response rating, Crabgrass, Large (crabgrass, large; [4]): 60 | Crabgrass, Large plant response rating (0 to 100 scale, 0 is no effect, 100 is complete control) (crabgrass, large; Postemergence, 500 g ai/ha): 80 | Plant response rating, Crabgrass, Large (crabgrass, large; [5]): 100 | Plant response rating, Morningglory (morningglory; [3]): 0 | Plant response rating, Morningglory (morningglory; [4]): 0 | Morningglory plant response rating (0 to 100 scale, 0 is no effect, 100 is complete control) (morningglory; Postemergence, 500 g ai/ha): 0 | Plant response rating, Morningglory (morningglory; [5]): 0 | Plant response rating, Wheat (wheat; [3]): 0 | Plant response rating, Wheat (wheat; [4]): 0 | Wheat plant response rating (0 to 100 scale, 0 is no effect, 100 is complete control) (wheat; Postemergence, 500 g ai/ha): 0 | Plant response rating, Wheat (wheat; [5]): 0 | Plant response rating, Pigweed (pigweed; [3]): 0 | Plant response rating, Pigweed (pigweed; [4]): 0 | Pigweed plant response rating (0 to 100 scale, 0 is no effect, 100 is complete control) (pigweed; Postemergence, 500 g ai/ha): 0 | Plant response rating, Pigweed (pigweed; [5]): 0 | Plant response rating, Barnyardgrass (barnyardgrass [2]; 250 g ai/ha): 20 | Plant response rating, Barnyardgrass (barnyardgrass [2]; 1000 g ai/ha): 20

O=C1NCC(c2ccc3ccccc3c2)C1C(=O)Nc1ccccc1C(F)(F)F (racemic) [Compound 117]
Plant response rating, Corn (corn; [3]): 0 | Plant response rating, Corn (corn; [6]): 0 | Plant response rating, Corn (corn; [7]): 20 | Plant response rating, Corn (corn; [8]): 0 | Plant response rating, Sedge, Umbrella (sedge, umbrella; 1000 g ai/ha): 0 | Plant response rating, Rice (rice; 1000 g ai/ha): 0 | Plant response rating, Velvetleaf (velvetleaf; [3]): 0 | Plant response rating, Velvetleaf (velvetleaf; [6]): 0 | Velvetleaf plant response rating (0 to 100 scale, 0 is no effect, 100 is complete control) (velvetleaf; Postemergence, 500 g ai/ha): 0 | Plant response rating, Velvetleaf (velvetleaf; [8]): 0 | Plant response rating, Ducksalad (ducksalad; 1000 g ai/ha): 90 | Plant response rating, Foxtail, Giant (giant foxtail; [3]): 20 | Plant response rating, Foxtail, Giant (giant foxtail; [6]): 20 | Foxtail, Giant plant response rating (0 to 100 scale, 0 is no effect, 100 is complete control) (giant foxtail; Postemergence, 500 g ai/ha): 50 | Plant response rating, Foxtail, Giant (giant foxtail; [8]): 70 | Plant response rating, Barnyardgrass (barnyardgrass [1]; [3]): 0 | Plant response rating, Barnyardgrass (barnyardgrass [1]; [6]): 0 | Plant response rating, Barnyardgrass (barnyardgrass [1]; [7]): 30 | Plant response rating, Barnyardgrass (barnyardgrass [1]; [9]): 20 | Plant response rating, Crabgrass, Large (crabgrass, large; [3]): 60 | Plant response rating, Crabgrass, Large (crabgrass, large; [6]): 30 | Crabgrass, Large plant response rating (0 to 100 scale, 0 is no effect, 100 is complete control) (crabgrass, large; Postemergence, 500 g ai/ha): 60 | Plant response rating, Crabgrass, Large (crabgrass, large; [8]): 80 | Plant response rating, Morningglory (morningglory; [3]): 0 | Plant response rating, Morningglory (morningglory; [6]): 0 | Morningglory plant response rating (0 to 100 scale, 0 is no effect, 100 is complete control) (morningglory; Postemergence, 500 g ai/ha): 0 | Plant response rating, Morningglory (morningglory; [8]): 0 | Plant response rating, Wheat (wheat; [3]): 0 | Plant response rating, Wheat (wheat; [6]): 0 | Wheat plant response rating (0 to 100 scale, 0 is no effect, 100 is complete control) (wheat; Postemergence, 500 g ai/ha): 0 | Plant response rating, Wheat (wheat; [8]): 0 | Plant response rating, Pigweed (pigweed; [3]): 0 | Plant response rating, Pigweed (pigweed; [6]): 0 | Pigweed plant response rating (0 to 100 scale, 0 is no effect, 100 is complete control) (pigweed; Postemergence, 500 g ai/ha): 0 | Plant response rating, Pigweed (pigweed; [8]): 0 | Plant response rating, Barnyardgrass (barnyardgrass [2]; 1000 g ai/ha): 40

N#Cc1cccc(C2CNC(=O)C2C(=O)Nc2ccccc2F)c1 (racemic) [Compound 72]
Plant response rating, Corn (corn; [6]): 0 | Plant response rating, Corn (corn; [7]): 0 | Corn plant response rating (corn; [10]): 0 | Plant response rating, Corn (corn; [8]): 0 | Plant response rating, Sedge, Umbrella (sedge, umbrella; 250 g ai/ha): 0 | Plant response rating, Rice (rice; 250 g ai/ha): 0 | Plant response rating, Velvetleaf (velvetleaf; [6]): 0 | Plant response rating, Velvetleaf (velvetleaf; [7]): 0 | Velvetleaf plant response rating (velvetleaf; [10]): 0 | Plant response rating, Velvetleaf (velvetleaf; [8]): 0 | Plant response rating, Ducksalad (ducksalad; 250 g ai/ha): 60 | Plant response rating, Foxtail, Giant (giant foxtail; [6]): 10 | Plant response rating, Foxtail, Giant (giant foxtail; [7]): 50 | Foxtail, Giant plant response rating (giant foxtail; [10]): 60 | Plant response rating, Foxtail, Giant (giant foxtail; [8]): 80 | Plant response rating, Barnyardgrass (barnyardgrass [1]; [6]): 20 | Plant response rating, Barnyardgrass (barnyardgrass [1]; [7]): 60 | Barnyardgrass plant response rating (barnyardgrass [1]; [10]): 0 | Plant response rating, Barnyardgrass (barnyardgrass [1]; [9]): 50 | Plant response rating, Crabgrass, Large (crabgrass, large; [6]): 30 | Plant response rating, Crabgrass, Large (crabgrass, large; [7]): 70 | Crabgrass, Large plant response rating (crabgrass, large; [10]): 80 | Plant response rating, Crabgrass, Large (crabgrass, large; [8]): 90 | Plant response rating, Morningglory (morningglory; [6]): 0 | Plant response rating, Morningglory (morningglory; [7]): 10 | Morningglory plant response rating (morningglory; [10]): 0 | Plant response rating, Morningglory (morningglory; [8]): 0 | Plant response rating, Wheat (wheat; [6]): 0 | Plant response rating, Wheat (wheat; [7]): 0 | Wheat plant response rating (wheat; [10]): 0 | Plant response rating, Wheat (wheat; [8]): 0 | Plant response rating, Pigweed (pigweed; [6]): 0 | Plant response rating, Pigweed (pigweed; [7]): 0 | Pigweed plant response rating (pigweed; [10]): 0 | Plant response rating, Pigweed (pigweed; [8]): 0 | Plant response rating, Barnyardgrass (barnyardgrass [2]; 250 g ai/ha): 0
